Drawing on patent US12448399B2, “Cereblon-based KRAS degrading PROTACs and uses related thereto” (Arvinas Operations, Inc., priority 2023, dated 2025), this text covers Dmax and DC50 for 13 compounds.

The target in the experiment is T1, KRas-G12D (Homo sapiens, UniProt P01116, G12D).
T1 construct: insert the HiBiT tag onto the N-terminus of one or more of the endogenous KRas alleles; host or cells: AsPC-1 HiBiT-KRasG12D knock-in clone (one tagged allele, two untagged KRasG12D alleles)
Description: HiBiT Degradation Assay (G12D), AsPC-1 HiBiT-KRasG12D cells, 24 hr. The experiment is classed as cell-based. Particulars: for Dmax: ASPC1, AsPC-1 cells, maximum degradation observed; for DC50: AsPC-1 cells. The gist of the method:
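Degradation was read after 24 hr compound exposure (0.5% DMSO, 37° C) by Nano-Glo HiBiT lytic luminescence in AsPC-1 cells carrying a HiBiT tag on one of three KRasG12D alleles. Signal relative to DMSO gave DC50 and Dmax by 4-parameter fit; alamar blue fluorescence monitored cytotoxicity.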
On the technique in general: With HiBiT, luminescence reflects the tagged protein that the partner subunit can reach.

T1 sequence (P01116 1-188 isoform P01116-2 G12D): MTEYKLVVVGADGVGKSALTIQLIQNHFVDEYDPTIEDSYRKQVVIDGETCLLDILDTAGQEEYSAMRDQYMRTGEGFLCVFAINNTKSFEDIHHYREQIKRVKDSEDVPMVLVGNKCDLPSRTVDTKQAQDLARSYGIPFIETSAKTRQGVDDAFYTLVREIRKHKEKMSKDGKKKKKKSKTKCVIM

A word on the Dmax: it is the greatest extent of degradation seen. Usually DC50 stands for the concentration giving 50% degradation. Read a low DC50 as a more potent degrader. Compound `CCc1c(F)ccc2cc(O)cc(-c3ncc4c(N5CC6CCC(C5)N6)nc(OCCN5CCC(F)(CC6CCN(CC7CCN(c8ccc9c(c8)n(C)c(=O)n9C8CCC(=O)NC8=O)CC7)CC6)CC5)nc4c3F)c12` (centres unmarked) [Compound 182, 3-{5-[4-({4-[(1-{2-[(4-{3,8-diazabicyclo[3.2.1]octan-3-yl}-7-(8-ethyl-7-fluoro-3-hydroxynaphthalen-1-yl)-8-fluoropyrido[4,3-d]pyrimidin-2-yl)oxy]ethyl}-4-fluoropiperidin-4-yl)methyl]piperidin-1-yl}methyl)piperidin-1-yl]-3-methyl-2-oxo-2,3-dihydro-1H-1,3-benzodiazol-1-yl}piperidine-2,6-dione] showed a Dmax of more than 70% and a DC50 of less than 5.1 µM.

Compound `C#Cc1c(F)ccc2cc(O)cc(-c3ncc4c(N5CC6CCC(C5)N6)nc(OCCN5CCC(F)(CN6CCC(CC7CCN(c8ccc9c(c8)n(C)c(=O)n9C8CCC(=O)NC8=O)CC7)CC6)CC5)nc4c3F)c12` (centres unmarked) [Compound 183, 3-{5-[4-({1-[(1-{2-[(4-{3,8-diazabicyclo[3.2.1]octan-3-yl}-7-(8-ethynyl-7-fluoro-3-hydroxynaphthalen-1-yl)-8-fluoropyrido[4,3-d]pyrimidin-2-yl)oxy]ethyl}-4-fluoropiperidin-4-yl)methyl]piperidin-4-yl}methyl)piperidin-1-yl]-3-methyl-2-oxo-2,3-dihydro-1H-1,3-benzodiazol-1-yl}piperidine-2,6-dione] gave a Dmax of more than 70% and a half-maximal degradation concentration (DC50) of less than 5.1 µM.

On to `C#Cc1c(F)ccc2cc(O)cc(-c3ncc4c(N5CC6CCC(C5)N6)nc(OC[C@@H](C)N5CCC(CC6CCN(CC7CCN(c8ccc9c(c8)n(C(C)C)c(=O)n9C8CCC(=O)NC8=O)CC7)CC6)CC5)nc4c3F)c12` (stereo partly drawn) [Compound 184, 3-[5-(4-{[4-({1-[(2R)-1-[(4-{3,8-diazabicyclo[3.2.1]octan-3-yl}-7-(8-ethynyl-7-fluoro-3-hydroxynaphthalen-1-yl)-8-fluoropyrido[4,3-d]pyrimidin-2-yl)oxy]propan-2-yl]piperidin-4-yl}methyl)piperidin-1-yl]methyl}piperidin-1-yl)-2-oxo-3-(propan-2-yl)-2,3-dihydro-1H-1,3-benzodiazol-1-yl]piperidine-2,6-dione], for which the Dmax is more than 70% and the DC50 is less than 5.1 µM.

Compound `C#Cc1c(F)ccc2cc(O)cc(-c3ncc4c(N5CC6CCC(C5)N6)nc(OC[C@@H](C)N5CCC(CC6CCN(CC7CCN(c8ccc9c(c8F)CN(C8CCC(=O)NC8=O)C9=O)CC7)CC6)CC5)nc4c3F)c12` (stereo partly drawn) [Compound 185, 3-[5-(4-{[4-({1-[(2R)-1-[(4-{3,8-diazabicyclo[3.2.1]octan-3-yl}-7-(8-ethynyl-7-fluoro-3-hydroxynaphthalen-1-yl)-8-fluoropyrido[4,3-d]pyrimidin-2-yl)oxy]propan-2-yl]piperidin-4-yl}methyl)piperidin-1-yl]methyl}piperidin-1-yl)-4-fluoro-1-oxo-2,3-dihydro-1H-isoindol-2-yl]piperidine-2,6-dione] came in with a Dmax of more than 70% and a half-maximal degradation concentration (DC50) of less than 5.1 µM.

As for `C#Cc1c(F)ccc2cc(O)cc(-c3ncc4c(N5CC6CCC(C5)N6)nc(OCC5(CN6CCN(CC7CCN(c8ccc9c(c8Cl)CN(C8CCC(=O)NC8=O)C9=O)CC7)CC6)CC5)nc4c3F)c12` (centres unmarked) [Compound 186, 3-{4-chloro-5-[4-({4-[(1-{[(4-{3,8-diazabicyclo[3.2.1]octan-3-yl}-7-(8-ethynyl-7-fluoro-3-hydroxynaphthalen-1-yl)-8-fluoropyrido[4,3-d]pyrimidin-2-yl)oxy]methyl}cyclopropyl)methyl]piperazin-1-yl}methyl)piperidin-1-yl]-1-oxo-2,3-dihydro-1H-isoindol-2-yl}piperidine-2,6-dione], the Dmax is more than 70% and the DC50 was less than 5.1 µM.

Compound `C#Cc1c(F)ccc2cc(O)cc(-c3ncc4c(N5CC6CCC(C5)N6)nc(OCC5(CN6CCC(CN7CCN(c8ccc9c(c8Cl)CN(C8CCC(=O)NC8=O)C9=O)CC7)CC6)CC5)nc4c3F)c12` (centres unmarked) [Compound 187, 3-{4-chloro-5-[4-({1-[(1-{[(4-{3,8-diazabicyclo[3.2.1]octan-3-yl}-7-(8-ethynyl-7-fluoro-3-hydroxynaphthalen-1-yl)-8-fluoropyrido[4,3-d]pyrimidin-2-yl)oxy]methyl}cyclopropyl)methyl]piperidin-4-yl}methyl)piperazin-1-yl]-1-oxo-2,3-dihydro-1H-isoindol-2-yl}piperidine-2,6-dione] showed a Dmax of more than 70% and a DC50 of less than 5.1 µM.

In turn, `C#Cc1c(F)ccc2cc(O)cc(-c3ncc4c(N5CC6CCC(C5)N6)nc(OCC5(CN6CCN(CC7CCN(c8ccc9c(c8)n(C)c(=O)n9C8CCC(=O)NC8=O)CC7)CC6)CC5)nc4c3F)c12` (centres unmarked) [Compound 188, 3-{5-[4-({4-[(1-{[(4-{3,8-diazabicyclo[3.2.1]octan-3-yl}-7-(8-ethynyl-7-fluoro-3-hydroxynaphthalen-1-yl)-8-fluoropyrido[4,3-d]pyrimidin-2-yl)oxy]methyl}cyclopropyl)methyl]piperazin-1-yl}methyl)piperidin-1-yl]-3-methyl-2-oxo-2,3-dihydro-1H-1,3-benzodiazol-1-yl}piperidine-2,6-dione] had a Dmax of more than 70% and a half-maximal degradation concentration (DC50) of less than 5.1 µM.

In turn, `C#Cc1c(F)ccc2cc(O)cc(-c3ncc4c(N5CC6CCC(C5)N6)nc(OCC5(CN6CCC(CN7CCN(c8ccc9c(c8)n(C)c(=O)n9C8CCC(=O)NC8=O)CC7)CC6)CC5)nc4c3F)c12` (centres unmarked) [Compound 189, 3-{5-[4-({1-[(1-{[(4-{3,8-diazabicyclo[3.2.1]octan-3-yl}-7-(8-ethynyl-7-fluoro-3-hydroxynaphthalen-1-yl)-8-fluoropyrido[4,3-d]pyrimidin-2-yl)oxy]methyl}cyclopropyl)methyl]piperidin-4-yl}methyl)piperazin-1-yl]-3-methyl-2-oxo-2,3-dihydro-1H-1,3-benzodiazol-1-yl}piperidine-2,6-dione] displayed a Dmax of more than 70% and a DC50 of less than 5.1 µM.

Compound `C#Cc1c(F)ccc2cc(O)cc(-c3ncc4c(N5CC6CCC(C5)N6)nc(OCC5(CN6CCC(CC7CCN(c8ccc9c(c8Cl)CN(C8CCC(=O)NC8=O)C9=O)CC7)CC6)CC5)nc4c3F)c12` (centres unmarked) [Compound 190, 3-{4-chloro-5-[4-({1-[(1-{[(4-{3,8-diazabicyclo[3.2.1]octan-3-yl}-7-(8-ethynyl-7-fluoro-3-hydroxynaphthalen-1-yl)-8-fluoropyrido[4,3-d]pyrimidin-2-yl)oxy]methyl}cyclopropyl)methyl]piperidin-4-yl}methyl)piperidin-1-yl]-1-oxo-2,3-dihydro-1H-isoindol-2-yl}piperidine-2,6-dione] displayed a Dmax of more than 70% and a DC50 of less than 5.1 µM.

`C#Cc1c(F)ccc2cc(O)cc(-c3ncc4c(N5CC6CCC(C5)N6)nc(OCC5(CN6CCC(CC7CCN(c8ccc9c(c8)n(C(C)C)c(=O)n9C8CCC(=O)NC8=O)CC7)CC6)CC5)nc4c3F)c12` (centres unmarked) [Compound 191, 3-{5-[4-({1-[(1-{[(4-{3,8-diazabicyclo[3.2.1]octan-3-yl}-7-(8-ethynyl-7-fluoro-3-hydroxynaphthalen-1-yl)-8-fluoropyrido[4,3-d]pyrimidin-2-yl)oxy]methyl}cyclopropyl)methyl]piperidin-4-yl}methyl)piperidin-1-yl]-2-oxo-3-(propan-2-yl)-2,3-dihydro-1H-1,3-benzodiazol-1-yl}piperidine-2,6-dione] came in with a Dmax of more than 70% and a DC50 of less than 5.1 µM.

Take `C#Cc1c(F)ccc2cc(O)cc(-c3ncc4c(N5CC6CCC(C5)N6)nc(OCC5(CN6CCC(CC7CCN(c8ccc9c(c8F)CN(C8CCC(=O)NC8=O)C9=O)CC7)CC6)CC5)nc4c3F)c12` (centres unmarked) [Compound 192, 3-{5-[4-({1-[(1-{[(4-{3,8-diazabicyclo[3.2.1]octan-3-yl}-7-(8-ethynyl-7-fluoro-3-hydroxynaphthalen-1-yl)-8-fluoropyrido[4,3-d]pyrimidin-2-yl)oxy]methyl}cyclopropyl)methyl]piperidin-4-yl}methyl)piperidin-1-yl]-4-fluoro-1-oxo-2,3-dihydro-1H-isoindol-2-yl}piperidine-2,6-dione]: the Dmax was more than 70% and the DC50 was less than 5.1 µM.

In turn, `C#Cc1c(F)ccc2cc(O)cc(-c3ncc4c(N5CC6CCC(C5)N6)nc(OCC5(CN6CCC7(CCN(CC8CCN(c9ccc%10c(c9)n(C)c(=O)n%10C9CCC(=O)NC9=O)CC8)CC7)CC6)CC5)nc4c3F)c12` (centres unmarked) [Compound 193, 3-[5-[4-[[3-[[1-[[4-(3,8-diazabicyclo[3.2.1]octan-3-yl)-7-(8-ethynyl-7-fluoro-3-hydroxy-1-naphthyl)-8-fluoro-pyrido[4,3-d]pyrimidin-2-yl]oxymethyl]cyclopropyl]methyl]-3,9-diazaspiro[5.5]undecan-9-yl]methyl]-1-piperidyl]-3-methyl-2-oxo-benzimidazol-1-yl]piperidine-2,6-dione] registered a maximal degradation (Dmax) of more than 70% and a DC50 of less than 5.1 µM.

As for `C#Cc1c(F)ccc2cc(O)cc(-c3ncc4c(N5CC6CCC(C5)N6)nc(OC[C@H](C)N5CCC(CC6CCN(CC7CCN(c8ccc9c(c8F)CN(C8CCC(=O)NC8=O)C9=O)CC7)CC6)CC5)nc4c3F)c12` (stereo partly drawn) [Compound 194, 3-[5-[4-[[4-[[1-[(1S)-2-[4-(3,8-diazabicyclo[3.2.1]octan-3-yl)-7-(8-ethynyl-7-fluoro-3-hydroxy-1-naphthyl)-8-fluoro-pyrido[4,3-d]pyrimidin-2-yl]oxy-1-methyl-ethyl]-4-piperidyl]methyl]-1-piperidyl]methyl]-1-piperidyl]-4-fluoro-1-oxo-isoindolin-2-yl]piperidine-2,6-dione], the Dmax was more than 70% and the 50% degradation concentration (DC50) was less than 5.1 µM.
